Measurements reported in US11492347B2 (ENYO PHARMA, priority 2018, dated 2022).
pIC50: −log10 of the molar value.

Tests used:
[1] = system: H1N1 (influenza A/New Caledonia/20/99); assay: microbe, parasite or virus in culture; format: cell-based; conditions: H1N1, A549, 48 h
[2] = biological target: T1, CISD1 Gene Product (mitoNEET) (Homo sapiens, UniProt Q9NZ45); assay: Stability of Fe-S cluster binding of purified NEET protein (absorbance 458 nm); format: biochemical; conditions: for Time (in minutes) to achieve 50% loss of bound cluster (Absorbance 458 nm) / Residual cluster bound at end of experiment (Percentage Absorbance 458 nm at time zero): mitoNEET 20 μM, compound 60 μM; for Time (in minutes) to achieve 50% loss of bound cluster (Absorbance 458 nm): pH 6, 37° C., run time 180 minutes, vehicle control 80; for Residual cluster bound at end of experiment (Percentage Absorbance 458 nm at time zero): pH 6, at 180 minutes, vehicle control 16%
T1 sequence (Q9NZ45 33-108 limits assumed): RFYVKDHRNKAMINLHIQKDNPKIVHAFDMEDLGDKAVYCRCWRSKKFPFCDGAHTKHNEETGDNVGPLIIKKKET
How it was run: (§1)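 Purified NEET protein (20 μM) with compound (60 μM, 1:3 molar ratio) in 100 mM Bis-Tris pH 6, 100 mM NaCl, 66 μM DMSO at 37 °C; 458 nm absorbance decay read every 5 min for 500 min (NAF-1) or 180 min (mitoNEET, Miner2). Outputs: time to 50% absorbance loss and residual % bound cluster, versus protein alone.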

[3] = biological target: T2, CISD2 Gene Product (NAF-1) (Homo sapiens, UniProt Q8N5K1); assay: as above; format: biochemical; conditions: NAF-1 20 μM, compound 60 μM; for Time (in minutes) to achieve 50% loss of bound cluster (Absorbance 458 nm): pH 6, 37° C., run time 500 minutes, vehicle control 310 or 210; for Residual cluster bound at end of experiment (Percentage Absorbance 458 nm at time zero): pH 6, at 500 minutes, vehicle control 3%
T2 sequence (Q8N5K1 57-135 limits assumed): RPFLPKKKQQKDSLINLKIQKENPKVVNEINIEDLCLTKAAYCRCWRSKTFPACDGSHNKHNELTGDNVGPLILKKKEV
How it was run: as §1

SMILES	pIC50 [1]	Time (in minutes) to achieve 50% loss of bound cluster (Absorbance 458 nm) [2]	Residual cluster bound at end of experiment (Percentage Absorbance 458 nm at time zero) [2]	Stabiliser or destabiliser of Fe-S cluster binding by CISD1 Gene Product (mitoNEET) ([2]; time to 50% cluster loss changed by more than 25% compared to the Control sample, at the concentrations tested)	Time (in minutes) to achieve 50% loss of bound cluster (Absorbance 458 nm) [3]	Residual cluster bound at end of experiment (Percentage Absorbance 458 nm at time zero) [3]
COC1CN(c2ccc(C(=O)Nc3sc4c(c3C(=O)O)CC(C)(C)CC4(C)C)cc2)C1 [Compound #58, 2-[[4-(3-Methoxyazetidin-1-yl)benzoyl]amino]-5,5,7,7-tetramethyl-4,6-dihydrobenzothiophene-3-carboxylic acid]	9.05	100 (80) minutes	36% (16%)	stabilisers	280 (310) minutes	39% (3%)
CC1(C)CCc2sc(NC(=O)c3ccccc3)c(C(=O)O)c21 [Compound #37, 2-Benzamido-4,4-dimethyl-5,6-dihydrocyclopenta[b]thiophene-3-carboxylic acid]	6.71	85 (80) minutes	23% (16%)	–	280 (210) minutes	3% (3%)
CC1(C)Cc2c(sc(NC(=O)c3ccc(N4CCOCC4)cc3)c2C(=O)O)C(C)(C)C1 [Compound #36, 5,5,7,7-Tetramethyl-2-[(4-morpholinobenzoyl)amino]-4,6-dihydrobenzothiophene-3-carboxylic acid]	7.40	98 (80) minutes	36 % (16%)	–	210 (210) minutes	30% (3%)
